Measured values: patent US20230085307A1, “PYRIDAZINONE COMPOUND AND HERBICIDE” (NISSAN CHEMICAL CORPORATION, priority 2019, published 2023)

How the values were obtained:
[1] = test system: late watergrass; test: Test Example 1: herbicidal activity, application before weed generation under submerged conditions (Table 16, symbol A); format: in vivo, late watergrass (Echinochloa oryzicola); settings: 320 g/ha applied herbicide
In short: (§1)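 Emulsion formulation, water-diluted to set dose, was put onto the flooded surface (4 cm depth, alluvial soil) the same day weeds were sown and 2.5-leaf rice transplanted. After 3 weeks at 25-30 °C under glass, each species was rated 0 (≤5% kill) to 5 (≥90% kill).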

[2] = test system: Japanese bulrush; test: Test Example 1: herbicidal activity, application before weed generation under submerged conditions (Table 16, symbol B); format: in vivo, Japanese bulrush (Schoenoplectus juncoides); settings: 320 g/ha applied herbicide
In short: as §1

[3] = test system: Japanese bulrush; test: Test Example 2: herbicidal activity, application during weed generation under submerged conditions (Table 17, symbol B); format: in vivo, Japanese bulrush (Schoenoplectus juncoides); settings: AAH 320 g/ha; application during weed generation, submerged conditions
In short: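 In this pot test, flooded alluvial soil (water depth 4 cm) holds all three species sown as a mixture. Once seedlings have one to two leaves, the compound's emulsion, thinned with water to the intended dose, is poured on the water; grading follows after three weeks on the earlier criteria.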

[4] = test system: barnyard grass; test: Test Example 3: herbicidal effect by foliage application, Wagner pot (Table 18, symbol H); format: in vivo, barnyard grass (Echinochloa crus-galli); settings: 320 g/ha
In short: (§2)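 Plants were sown in alluvial soil held under 0.1–0.5 cm standing water and grown 14 days in a greenhouse at 25–30 °C. An emulsifiable formulation, water-diluted to the set dose, was then sprayed onto the foliage, and effects were scored three weeks later using previously defined criteria.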

[5] = test system: Chinese sprangletop; test: Test Example 3: herbicidal effect by foliage application, Wagner pot (Table 18, symbol D); format: in vivo, chinese sprangletop (Leptochloa chinensis); settings: 320 g/ha
In short: as §2

[6] = test system: southern crabgrass; test: Test Example 4: herbicidal effect by soil treatment (Table 19, symbol F); format: in vivo, southern crabgrass (Digitaria ciliaris)
In short: (§3)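 Pre-emergence style soil spray: seeds under ~1.5 cm sterilized diluvial soil received a uniform coat of emulsion diluted to the predetermined herbicide amount. Greenhouse 25–30° C; readout at week three on previously defined criteria.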

[7] = test system: barnyard grass; test: Test Example 4: herbicidal effect by soil treatment (Table 19, symbol H); format: in vivo, barnyard grass (Echinochloa crus-galli)
In short: as §3

[8] = test system: windgrass; test: Test Example 4: herbicidal effect by soil treatment (Table 19, symbol L); format: in vivo, windgrass (Apera spica-venti)
In short: as §3

[9] = test system: velvetleaf; test: Test Example 4: herbicidal effect by soil treatment (Table 19, symbol M); format: in vivo, velvetleaf (Abutilon theophrasti)
In short: as §3

[10] = test system: lambsquarters; test: Test Example 4: herbicidal effect by soil treatment (Table 19, symbol O); format: in vivo, lambsquarters (Chenopodium album); settings: amount of applied herbicide 320 g/ha
In short: as §3

[11] = test system: southern crabgrass; test: Test Example 5: herbicidal effect by foliage application, plastic box (Table 20, symbol F); format: in vivo, southern crabgrass (Digitaria ciliaris); settings: foliage application, 320 g/ha; for herbicidal effect grade, F: southern crabgrass: three weeks after application
In short: (§4)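 Plants were sown into sterilized diluvial soil under about 1.5 cm cover and kept in a greenhouse at 25° C. to 30° C. Fourteen days on, foliage received an even spray of the diluted emulsion. Herbicidal or crop effect was judged three weeks afterwards.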

[12] = test system: wild oat; test: Test Example 5: herbicidal effect by foliage application, plastic box (Table 20, symbol I); format: in vivo, wild oat (Avena fatua); settings: foliage application, 320 g/ha; for herbicidal effect grade, I: wild oat: three weeks after application
In short: as §4

[13] = test system: Italian ryegrass; test: Test Example 5: herbicidal effect by foliage application, plastic box (Table 20, symbol K); format: in vivo, Italian ryegrass (Lolium multiflorum); settings: foliage application, 320 g/ha; for herbicidal effect grade, K: Italian ryegrass: three weeks after application
In short: as §4

[14] = test system: windgrass; test: Test Example 5: herbicidal effect by foliage application, plastic box (Table 20, symbol L); format: in vivo, windgrass (Apera spica-venti); settings: foliage application, 320 g/ha; for herbicidal effect grade, L: windgrass: three weeks after application
In short: as §4

[15] = test system: velvetleaf; test: Test Example 5: herbicidal effect by foliage application, plastic box (Table 20, symbol M); format: in vivo, velvetleaf (Abutilon theophrasti); settings: foliage application, 320 g/ha; for herbicidal effect grade, M: velvetleaf: three weeks after application
In short: as §4

[16] = test system: lambsquarters; test: Test Example 5: herbicidal effect by foliage application, plastic box (Table 20, symbol O); format: in vivo, lambsquarters (Chenopodium album); settings: foliage application, 320 g/ha; for herbicidal effect grade, O: lambsquarters: three weeks after application
In short: as §4

[17] = test system: persian speedwell; test: Test Example 5: herbicidal effect by foliage application, plastic box (Table 20, symbol R); format: in vivo, Persian speedwell (Veronica persica); settings: foliage application, 320 g/ha; for herbicidal effect grade, R: persian speedwell: three weeks after application
In short: as §4

[18] = amount of applied herbicide 320 g/ha
[19] = evaluated three weeks after application

| SMILES | Herbicidal effect on A: late watergrass (grade 0-5) [1] | Herbicidal effect on B: Japanese bulrush (grade 0-5) [2] | herbicidal effect rating, B: Japanese bulrush [3] | herbicidal effect on H (barnyard grass), rating 0-5 [4] | herbicidal effect on D (Chinese sprangletop), rating 0-5 [5] | herbicidal effect rating, F: southern crabgrass [6, 18] | herbicidal effect rating, H: barnyard grass [7, 18] | herbicidal effect rating, L: windgrass [8, 18] | herbicidal effect rating, M: velvetleaf [9, 18] | herbicidal effect rating, O: lambsquarters [10] | herbicidal effect grade, F: southern crabgrass [11] | herbicidal effect grade, I: wild oat [12] | herbicidal effect grade, K: Italian ryegrass [13] | herbicidal effect grade, L: windgrass [14] | herbicidal effect grade, M: velvetleaf [15] | herbicidal effect grade, O: lambsquarters [16] | herbicidal effect grade, R: persian speedwell [17] | also measured |
| --- | --- | --- | --- | --- | --- | --- | --- | --- | --- | --- | --- | --- | --- | --- | --- | --- | --- | --- |
| CCCOc1ccc(-c2sc3ccccc3c2-c2c(O)c(C)nn(C)c2=O)cc1 [1-019] | 5 (Herbicidal rate of 90% or more (almost completely withered)) | 5 (Herbicidal rate of 90% or more (almost completely withered)) | 4 (Herbicidal rate of 70% or more and less than 90%) | 5 (Herbicidal rate of 90% or more (almost completely withered)) | 4 (Herbicidal rate of 70% or more and less than 90%) | 0 (Herbicidal rate of 5% or less (almost no effect)) | 3 (Herbicidal rate of 40% or more and less than 70%) | 0 (Herbicidal rate of 5% or less (almost no effect)) | 0 (Herbicidal rate of 5% or less (almost no effect)) | 4 (Herbicidal rate of 70% or more and less than 90%) | 4 (Herbicidal rate of 70% or more and less than 90%) | 3 (Herbicidal rate of 40% or more and less than 70%) | 4 (Herbicidal rate of 70% or more and less than 90%) | 5 (Herbicidal rate of 90% or more (almost completely withered)) | 5 (Herbicidal rate of 90% or more (almost completely withered)) | 5 (Herbicidal rate of 90% or more (almost completely withered)) | 5 (Herbicidal rate of 90% or more (almost completely withered)) | – |
| Cc1nn(C)c(=O)c(-c2c(-c3ccc(OC(C)C)cc3)sc3ccccc23)c1O [1-020] | 4 (Herbicidal rate of 70% or more and less than 90%) | 5 (Herbicidal rate of 90% or more (almost completely withered)) | 3 (Herbicidal rate of 40% or more and less than 70%) | 5 (Herbicidal rate of 90% or more (almost completely withered)) | 1 (Herbicidal rate of 5% or more and less than 20%) | 0 (Herbicidal rate of 5% or less (almost no effect)) | 5 (Herbicidal rate of 90% or more (almost completely withered)) | 0 (Herbicidal rate of 5% or less (almost no effect)) | 0 (Herbicidal rate of 5% or less (almost no effect)) | 4 (Herbicidal rate of 70% or more and less than 90%) | 3 (Herbicidal rate of 40% or more and less than 70%) | 0 (Herbicidal rate of 5% or less (almost no effect)) | 3 (Herbicidal rate of 40% or more and less than 70%) | 5 (Herbicidal rate of 90% or more (almost completely withered)) | 3 (Herbicidal rate of 40% or more and less than 70%) | 2 (Herbicidal rate of 20% or more and less than 40%) | 5 (Herbicidal rate of 90% or more (almost completely withered)) | – |
| CCCC(=O)Oc1c(C)nn(C)c(=O)c1-c1c(-c2ccc(OC(C)C)cc2)sc2ccccc12 [1-021] | 4 (Herbicidal rate of 70% or more and less than 90%) | 5 (Herbicidal rate of 90% or more (almost completely withered)) | 3 (Herbicidal rate of 40% or more and less than 70%) | 5 (Herbicidal rate of 90% or more (almost completely withered)) | 1 (Herbicidal rate of 5% or more and less than 20%) | 0 (Herbicidal rate of 5% or less (almost no effect)) | 0 (Herbicidal rate of 5% or less (almost no effect)) | 0 (Herbicidal rate of 5% or less (almost no effect)) | 3 (Herbicidal rate of 40% or more and less than 70%) | 0 (Herbicidal rate of 5% or less (almost no effect)) | 3 (Herbicidal rate of 40% or more and less than 70%) | 0 (Herbicidal rate of 5% or less (almost no effect)) | 3 (Herbicidal rate of 40% or more and less than 70%) | 0 (Herbicidal rate of 5% or less (almost no effect)) | 3 (Herbicidal rate of 40% or more and less than 70%) | 1 (Herbicidal rate of 5% or more and less than 20%) | 5 (Herbicidal rate of 90% or more (almost completely withered)) | – |
| C#CCOc1ccc(-c2sc3ccc(F)cc3c2-c2c(OCOCCOC)c(C)nn(C)c2=O)cc1 [2-055] | 0 (Herbicidal rate of 5% or less (almost no effect)) | 3 (Herbicidal rate of 40% or more and less than 70%) | 3 (Herbicidal rate of 40% or more and less than 70%) | 5 (Herbicidal rate of 90% or more (almost completely withered)) | 5 (Herbicidal rate of 90% or more (almost completely withered)) | – | – | – | – | – | – | – | – | – | – | – | – | herbicidal effect rating, F: southern crabgrass ([6]; 320 g/ha): 1 (Herbicidal rate of 5% or more and less than 20%); herbicidal effect rating, H: barnyard grass ([7]; 320 g/ha): 3 (Herbicidal rate of 40% or more and less than 70%); herbicidal effect rating, L: windgrass ([8]; 320 g/ha): 0 (Herbicidal rate of 5% or less (almost no effect)); herbicidal effect rating, M: velvetleaf ([9]; 320 g/ha): 3 (Herbicidal rate of 40% or more and less than 70%); herbicidal effect on F: southern crabgrass [11, 19]: 1 (Herbicidal rate of 5% or more and less than 20%); herbicidal effect on I: wild oat [12, 19]: 1 (Herbicidal rate of 5% or more and less than 20%); herbicidal effect on K: Italian ryegrass [13, 19]: 3 (Herbicidal rate of 40% or more and less than 70%); herbicidal effect on L: windgrass [14, 19]: 0 (Herbicidal rate of 5% or less (almost no effect)); herbicidal effect on M: velvetleaf [15, 19]: 5 (Herbicidal rate of 90% or more (almost completely withered)); herbicidal effect on O: lambsquarters [16, 19]: 5 (Herbicidal rate of 90% or more (almost completely withered)); herbicidal effect on R: persian speedwell [17, 19]: 5 (Herbicidal rate of 90% or more (almost completely withered)) |
